Insect mortality data for one molecule are collected here from patent US7666882B2, “Anthranilamide insecticides” (E.I. du Pont de Nemours and Company, priority 2002, dated 2010).

SMILES strings stand for the structures.

This series concerns potato leafhopper (Empoasca fabae Harris). Kind of series: Test D: control of potato leafhopper through contact and/or systemic means on Longio bean plant. Type of series: in vivo. Conditions: sprayed at 250 ppm, adults post-infested, 6 days, 19-21° C. The method, then: Test compounds were formulated using a solution containing 10% acetone, 90% water and 300 ppm X-77® Spreader Lo-Foam Formula non-ionic surfactant containing alkylarylpolyoxyethylene, free fatty acids, glycols and isopropanol (Loveland Industries, Inc.). The formulated compounds were applied in 1 mL of liquid through a SUJ2 atomizer nozzle with ⅛ JJ custom body (Spraying Systems Co.) positioned 1.27 cm (0.5 inches) above the top of each test unit. All experimental compounds in this screen were sprayed at 250 ppm, replicated three times. After spraying of the formulated test compound, each test unit was allowed to dry for 1 hour and then a black, screened cap was placed on top. The test units were held for 6 days in a growth chamber at 19-21° C. and 50-70% relative humidity. Each test unit was then visually assessed for insect mortality.
For evaluating control of potato leafhopper (Empoasca fabae Harris) through contact and/or systemic means, the test unit consisted of a small open container with a 5-6 day old Longio bean plant (primary leaves emerged) inside. White sand was added to the top of the soil and one of the primary leaves was excised prior to application. Test compounds were formulated and sprayed at 250 ppm and replicated three times as described for Test C. […] Each test unit was then visually assessed for insect mortality.

With `CNC(=O)c1cc(Cl)cc(Cl)c1NC(=O)c1cc(OCC#N)nn1-c1ncccc1Cl` [Compound 11], the insect mortality result is “at least 80%”.
